Source: patent US8188059B2, “Compounds and methods for modulating expression of GCGR” (Isis Pharmaceuticals, Inc., priority 2006, dated 2012)
Strand notation (5' to 3'): a small letter for the sugar, then the base; units joined by * are phosphorothioate-linked, units joined directly phosphodiester-linked; [ ] holds rarer units or linkages, { } end groups; capitals alone tell only the bases. e = 2'-O-(2-methoxyethyl) (MOE); [5mC] = 5-methylcytosine; d = 2'-deoxy (DNA)

Key:
monkey GCGR mRNA = test: Antisense inhibition of GCGR in primary monkey hepatocytes, 25-200 nM (Example 21, Table 80); assay type: cell-based; settings: relative to untreated control cells
Method: Additional short antisense compounds targeted to a GCGR nucleic acid were tested for their effects on monkey GCGR mRNA in vitro. Cultured primary monkey hepatocytes were treated as described herein with 25, 50, 100 or 200 nM of short antisense compound. After the treatment period, RNA was isolated from the cells and GCGR mRNA levels were measured by quantitative real-time PCR, as described herein. GCGR mRNA levels were adjusted according to total RNA content as measured by RIBOGREEN®. Results are presented in Table 80 as percent reduction in GCGR mRNA, relative to untreated control cells.

[1] = Triglyceride, total cholesterol, HDL, LDL, free fatty acid and glucose levels (Example 3, Table 28); assay type: in vivo, mouse; parameters: Free Fatty Acid (FFA): unit not given here; settings: Balb/c mice
Method: (§1) Antisense compound doses included 2.4, 1.2, 0.6, 0.3 and 0.15 μmol/kg. For antisense compounds 14 nucleotides in length, these doses equate to approximately 12, 6, 3, 1.5 or 0.75 mg/kg, respectively. Shown in Table 25 are the sequences and motifs of the antisense compounds used in this study. […] Bolded residues indicate 2′-O-methoxyethyl moieties and italicized residues indicate methyleneoxy (4′-CH2—O-2′) BNAs. The internucleoside linkages of each compound are phosphorothioate throughout. All cytosine residues of ISIS 147764 and ISIS 372938 are replaced by 5-methyl cytosines. For ISIS 387462, only the cytosine residue in the wing of the compound is replaced by 5-methyl cytosine. ApoB antisense compounds are targeted to publicly available ApoB-100 sequences, including Genbank Accession No. XM—137955.5 (SEQ ID NO: 2).
(§2) Forty-eight hours following the final injection, mice were sacrificed to evaluate transaminases (Table 26); liver and kidney weight (Table 27); triglyceride, LDL, HDL and free fatty acid levels (Table 28); target mRNA level in liver (Table 29); target protein level in plasma; and oligonucleotide tissue concentration (Table 30). These endpoints were determined using methods described herein and well known to those of ordinary skill in the art.
Glucose levels also were similar among all treatment groups.

[2] = Full-length and total antisense compound tissue concentration in liver and kidney (Example 3, Table 30); assay type: in vivo, mouse; settings: Balb/c mice, 2.4 μmol/kg i.p. twice per week for three weeks
Method: as §1, §2
To determine whether the observed increase in efficiency with the methyleneoxy (4′-CH2—O-2′) BNA gapmer is due to an increase in oligonucleotide accumulation, full-length and total oligonucleotide concentration in the liver and kidney were determined.

[3] = Liver and kidney weight, total body weight and food consumption (Example 3, Table 27); assay type: in vivo, mouse; settings: Balb/c mice
Method: as §1, §2

[4] = ALT and AST levels, Balb/c mice (Example 3, Table 26); assay type: in vivo, mouse; settings: 48 h after final injection
Method: as §1, §2

ApoB mRNA = ApoB mRNA level in liver of Balb/c mice, i.p. twice per week for three weeks (Example 3, Table 29); assay type: in vivo, mouse; settings: for % ApoB mRNA Level (relative to saline control): liver
Method: Prior to quantitative PCR analysis, primer-probe sets specific to the target gene being measured were evaluated for their ability to be “multiplexed” with a GAPDH amplification reaction. After isolation the RNA is subjected to sequential reverse transcriptase (RT) reaction and real-time PCR, both of which are performed in the same well. RT and PCR reagents were obtained from Invitrogen Life Technologies (Carlsbad, Calif.). […] The RT reaction was carried out by incubation for 30 minutes at 48° C. Following a 10 minute incubation at 95° C. to activate the […]® Taq, 40 cycles of a two-step PCR protocol were carried out: 95° C. for 15 seconds (denaturation) followed by 60° C. for 1.5 minutes (annealing/extension).
as §1, §2

GCGR mRNA = GCGR mRNA levels in liver and estimated ED50, C57/BL6 mice, single i.p. dose (Example 5, Tables 44, 45); assay type: in vivo, mouse
Method: Eight-week old male C57/BL6 mice (Jackson Laboratory, Bar Harbor, Me.) were administered a single dose of GCGR antisense compound by intraperitonel (i.p.) injection at a concentration of 10, 3.2, 1, and 0.32 μmol·kg. Each dose group consisted of four animals. Shown in Table 43 are the sequences, motifs and conjugates of the GCGR antisense compounds used in this study. Bolded residues indicate 2′-O-methoxyethyl (2′-MOE) modifications and the italicized residues indicate methyleneoxy (4′-CH2—O-2′) BNA modifications. All antisense compounds comprise phosphorothioate internucleoside linkages throughout and each cytosine is replaced with 5-methylcytosine. GCGR antisense compounds target published GCGR nucleic acids, including Genbank Accession No. BC031885.1 (SEQ ID NO: 7).
To determine whether the phenotypic changes shown above correlated with a decrease in GCGR mRNA, treated animals were evaluated for levels of target mRNA in liver by RT, real time PCR according to methods described herein. Table 44 show results from direct comparisons of the antisense compounds targeting GCGR nucleic acid for their effect on target expression. Results are expressed as percent of saline control.

rat SGLT2 mRNA = test: Rat SGLT2 mRNA levels in kidney, 1-10-1 gapmers at 250 nmol/kg, Sprague-Dawley rats (Example 14, Table 66); assay type: in vivo
Method: The effect of the above 1-10-1gapmers (see Table 64 above) on rat SGLT2 mRNA levels. Data are taken from four experiments in which male Sprague-Dawley rats (170-200 g) were dosed twice per week for three weeks with 250 nmol/kg given by intraperitoneal injection. Rats were sacrificed 48 hours following last administration and evaluated for SGLT2 mRNA levels in kidney. Target levels were determined by RT, real-time PCR as described by other examples herein. PCR results were normalized to an internal ISIS control.

[5] = 0.15 μmol/kg i.p. twice per week for three weeks
[6] = 0.3 μmol/kg i.p. twice per week for three weeks
[7] = 0.6 μmol/kg i.p. twice per week for three weeks
[8] = 1.2 μmol/kg i.p. twice per week for three weeks
[9] = 2.4 μmol/kg i.p. twice per week for three weeks

## 327131 (antisense eA*eT*eG*dT*dT*dG*dG*d[5mC]*d[5mC]*dG*dT*eG*eG*eT) [compound 327131]
Monkey GCGR mRNA; 25 nM
  percent reduction in GCGR mRNA: 0
Monkey GCGR mRNA; 50 nM
  percent reduction in GCGR mRNA: −8
Monkey GCGR mRNA; 100 nM
  percent reduction in GCGR mRNA: −36
Monkey GCGR mRNA; 200 nM
  percent reduction in GCGR mRNA: −36

## 372938 (antisense eG*eG*dT*dA*d[5mC]*dA*dT*dG*dG*dA*dA*dG*eT*e[5mC]) [compound 372938]
[1]; [5]
  Free Fatty Acid (FFA): 1.57
  HDL: 82.8 mg/dL
  LDL: 10.8 mg/dL
  Total Cholesterol (CHOL): 106 mg/dL
  Triglyceride (TRIG): 151 mg/dL
[1]; [6]
  Free Fatty Acid (FFA): 1.53
  HDL: 84.3 mg/dL
  LDL: 11.0 mg/dL
  Total Cholesterol (CHOL): 109 mg/dL
  Triglyceride (TRIG): 138 mg/dL
[1]; [7]
  Free Fatty Acid (FFA): 1.66
  HDL: 83.3 mg/dL
  LDL: 10.8 mg/dL
  Total Cholesterol (CHOL): 110 mg/dL
  Triglyceride (TRIG): 184 mg/dL
[1]; [8]
  Free Fatty Acid (FFA): 1.70
  HDL: 77.8 mg/dL
  LDL: 9.5 mg/dL
  Total Cholesterol (CHOL): 101 mg/dL
  Triglyceride (TRIG): 136 mg/dL
[1]; [9]
  Free Fatty Acid (FFA): 1.28
  HDL: 79.0 mg/dL
  LDL: 10.3 mg/dL
  Total Cholesterol (CHOL): 104 mg/dL
  Triglyceride (TRIG): 153 mg/dL
[2]
  Kidney Full-Length antisense compound tissue concentration: 32.0 µM
  Kidney Total antisense compound tissue concentration: 34.0 µM
  Liver Full-Length antisense compound tissue concentration: 5.49 µM
  Liver Total antisense compound tissue concentration: 7.76 µM
[3]; [5]
  Kidney Weight: 98 % of saline control
  Liver Weight: 96 % of saline control
[3]; [6]
  Kidney Weight: 107 % of saline control
  Liver Weight: 91 % of saline control
[3]; [7]
  Kidney Weight: 112 % of saline control
  Liver Weight: 96 % of saline control
[3]; [8]
  Kidney Weight: 101 % of saline control
  Liver Weight: 90 % of saline control
[3]; [9]
  Kidney Weight: 100 % of saline control
  Liver Weight: 100 % of saline control
[4]; [5]
  ALT: 28.3 IU/L
  AST: 50.3 IU/L
[4]; [6]
  ALT: 28.3 IU/L
  AST: 60.0 IU/L
[4]; [7]
  ALT: 28.0 IU/L
  AST: 79.3 IU/L
[4]; [8]
  ALT: 24.8 IU/L
  AST: 49.5 IU/L
[4]; [9]
  ALT: 26.0 IU/L
  AST: 49.0 IU/L
ApoB mRNA; Table 30 (rounded), 2.4 μmol/kg i.p. twice per week for three weeks
  ApoB mRNA level: 77 % of saline control
ApoB mRNA; [5]
  % ApoB mRNA Level (relative to saline control): 93.1%
ApoB mRNA; [6]
  % ApoB mRNA Level (relative to saline control): 92.6%
ApoB mRNA; [7]
  % ApoB mRNA Level (relative to saline control): 87.3%
ApoB mRNA; [8]
  % ApoB mRNA Level (relative to saline control): 90.0%
ApoB mRNA; [9]
  % ApoB mRNA Level (relative to saline control): 77.0%

## 396145 (antisense eA*eT*eG*eG*e[5mC]*dT*dT*d[5mC]*dT*d[5mC]*d[5mC]*dA*dT*d[5mC]*dA*eT*eA*eT*e[5mC]*e[5mC]) [compound 396145]
GCGR mRNA; 3.2 μmol/kg single i.p.
  GCGR mRNA levels in liver: 33% of saline control
GCGR mRNA; 10 μmol/kg single i.p.
  GCGR mRNA levels in liver: 8% of saline control

## 396147 (antisense e[5mC]*eT*eT*eG*eG*dG*d[5mC]*dA*dT*dG*d[5mC]*dT*d[5mC]*dG*dT*e[5mC]*eA*eG*eT*e[5mC]) [compound 396147]
GCGR mRNA; 3.2 μmol/kg single i.p.
  GCGR mRNA levels in liver: 68% of saline control
GCGR mRNA; 10 μmol/kg single i.p.
  GCGR mRNA levels in liver: 28% of saline control

## ISIS 381408: SGLT2; 1-10-1 MOE gapmer (antisense TACCGAACACCT; sugars from the 5' end e1 d10 e1, backbone and methylation of C not given here)
Rat SGLT2 mRNA; 250 nmol/kg i.p. twice per week for three weeks, Sprague-Dawley rats, kidney
  % change in SGLT2 expression relative to saline: −5%
Rat SGLT2 mRNA; rat kidney, 250 nmol/kg twice per week for three weeks
  expression of SGLT2 in vivo: Activity of ISIS 381408 has been shown
